Results taken from PMC11985751, “Synthesis, bioactivity, and molecular docking studies: novel arylpiperazine derivatives as potential new-resistant AR antagonists” (Frontiers in Chemistry, 2025).

Legend:
PC-3 = experiment: In vitro cytotoxicity, CCK-8 assay; type: cell-based, human; details: CCK-8, mean ± SD of three trials
Description: (§1) PC-3 and WPMY-1 cells were cultured in Dulbecco’s modiffcation Eagle’s medium (DMEM, Invitrogen, Carlsbad, CA, United States) supplemented with 10% fetal bovine serum (FBS, Hyclone, Logan, UT, United States), 100 U/mL penicillin and 0.1 mg/mL streptomycin (Invitrogen). DU145 cells were cultured in RPMI1640 media supplemented with 10% fetal bovine serum (FBS, Hyclone), 100 U/mL penicillin and 0.1 mg/mL streptomycin (Invitrogen). LNCaP cells were cultured in F12 media supplemented with 10% fetal bovine serum (FBS, Hyclone), 100 U/mL penicillin and 0.1 mg/mL streptomycin (Invitrogen). The cells were incubated at 37°C in a humidified atmosphere with 5% CO2([Chen et al., 2025]; [Jiang et al., 2024]). […]
(§2) The compound concentrations were set at 30, 15, 7.5, 3.75, 1.88, and 0.94 μmol/L. The absorbance (A) was measured at 450 nm using a microplate reader. […] All experiments were repeated three times under identical conditions, and the mean value was taken as the final result.
(§3) The cytotoxic activity of derivatives 5–24 against three human prostate cancer cell lines (PC-3, LNCaP, and DU145) and one type of human normal prostate epithelial cells was evaluated using the CCK-8 method.

LNCaP = experiment: In vitro cytotoxicity, CCK-8 assay; type: cell-based, human; details: Homo sapiens, LNCaP, LNCaP cells, CCK-8, mean ± SD of three trials
Description: PC-3 and WPMY-1 cells were cultured in Dulbecco’s modiffcation Eagle’s medium (DMEM, Invitrogen, Carlsbad, CA, United States) supplemented with 10% fetal bovine serum (FBS, Hyclone, Logan, UT, United States), 100 U/mL penicillin and 0.1 mg/mL streptomycin (Invitrogen). DU145 cells were cultured in RPMI1640 media supplemented with 10% fetal bovine serum (FBS, Hyclone), 100 U/mL penicillin and 0.1 mg/mL streptomycin (Invitrogen). LNCaP cells were cultured in F12 media supplemented with 10% fetal bovine serum (FBS, Hyclone), 100 U/mL penicillin and 0.1 mg/mL streptomycin (Invitrogen). The cells were incubated at 37°C in a humidified atmosphere with 5% CO2([Chen et al., 2025]; [Jiang et al., 2024]).
The proliferative capacity of cells was evaluated through the implementation of a Cell Counting Kit-8 (CCK-8) assay, supplied by Dojindo (Japan), to quantify cellular growth. Post-transfection, cells were dispensed into a 96-well microplate at a density of 3 × 10^3 cells per well and incubated for intervals of 0, 24, 48, 72, 96, and 120 h. Following this, 10 μL of the CCK-8 solution was introduced into each well and the plates were returned to the incubator for an additional 2-h period at 37°C under 5% CO2 conditions. Absorbance readings at 450 nm were subsequently taken using an ELISA reader manufactured by Bio Tek (United States) ([Chen et al., 2022]; [Zhou et al., 2024]).
as §2, §3

DU145 = experiment: In vitro cytotoxicity, CCK-8 assay; type: cell-based; details: Homo sapiens, DU-145; DU145 cells, CCK-8, mean ± SD of three trials
Description: as §1, §2, §3

WPMY-1 = experiment: In vitro cytotoxicity, CCK-8 assay (normal prostatic epithelial cells); type: cell-based; details: Homo sapiens; WPMY-1 normal prostatic epithelial cells, CCK-8, mean ± SD of three trials
Description: as §1, §2, §3

AR = molecular target: T1, AR (Homo sapiens, UniProt P10275); experiment: AR reporter gene (luciferase) assay, co-treatment with 1 nM R1881; type: cell-based; details: 10 μM compound, inhibition rate as ratio to R1881 control, read-out: AR antagonistic activity% (10 μM)
T1 sequence (P10275 1-920): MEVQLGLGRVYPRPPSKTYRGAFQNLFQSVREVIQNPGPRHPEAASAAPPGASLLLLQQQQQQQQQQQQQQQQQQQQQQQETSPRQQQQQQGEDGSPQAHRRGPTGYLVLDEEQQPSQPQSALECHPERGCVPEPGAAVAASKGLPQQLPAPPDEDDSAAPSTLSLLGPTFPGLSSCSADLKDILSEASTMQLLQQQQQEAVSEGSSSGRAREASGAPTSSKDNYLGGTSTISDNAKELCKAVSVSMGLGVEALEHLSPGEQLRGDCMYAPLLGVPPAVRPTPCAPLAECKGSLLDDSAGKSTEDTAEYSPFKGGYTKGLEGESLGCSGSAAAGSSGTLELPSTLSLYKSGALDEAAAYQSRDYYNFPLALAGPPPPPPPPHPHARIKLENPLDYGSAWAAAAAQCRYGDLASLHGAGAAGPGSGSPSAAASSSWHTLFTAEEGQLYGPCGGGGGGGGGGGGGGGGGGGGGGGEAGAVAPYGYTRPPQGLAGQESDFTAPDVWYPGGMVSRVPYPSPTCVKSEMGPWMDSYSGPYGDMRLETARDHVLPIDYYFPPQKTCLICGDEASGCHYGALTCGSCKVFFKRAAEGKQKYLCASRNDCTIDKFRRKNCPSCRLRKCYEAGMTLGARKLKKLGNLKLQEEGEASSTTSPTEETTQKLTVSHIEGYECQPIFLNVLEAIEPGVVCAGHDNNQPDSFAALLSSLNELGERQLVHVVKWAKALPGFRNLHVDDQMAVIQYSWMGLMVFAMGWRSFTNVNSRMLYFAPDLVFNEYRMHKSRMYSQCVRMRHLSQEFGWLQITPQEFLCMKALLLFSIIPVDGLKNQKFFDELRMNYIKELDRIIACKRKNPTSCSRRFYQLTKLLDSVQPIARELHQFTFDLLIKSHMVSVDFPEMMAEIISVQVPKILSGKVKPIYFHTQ
Description: RLUs were measured using a luminometer (GloMaxTM 96-Microplate Luminometer, Promega) and are reported as the mean ± SEM of three individual experiments. For agonists, fold of induction = LUinduced/RLUuninduced. For antagonists, % of control = 100 × RLU (agonist + antagonist)/RLU (agonist alone). All RLUs were normalized against ffreffy RLUs/Renilla RLUs. Data are expressed as EC50/IC50 values in μM, and the IC50 of […] (μM) was calculated by plotting the data using nonlinear regression analysis in Graph-Pad Prism 5 software.

AR-LBD (GST) = molecular target: T2, AR-LBD (GST) (Rattus norvegicus, UniProt P15207); experiment: Fluorescence polarization, PolarScreen AR Competitor Assay, Green
T2 sequence (P15207 651-882 limits assumed): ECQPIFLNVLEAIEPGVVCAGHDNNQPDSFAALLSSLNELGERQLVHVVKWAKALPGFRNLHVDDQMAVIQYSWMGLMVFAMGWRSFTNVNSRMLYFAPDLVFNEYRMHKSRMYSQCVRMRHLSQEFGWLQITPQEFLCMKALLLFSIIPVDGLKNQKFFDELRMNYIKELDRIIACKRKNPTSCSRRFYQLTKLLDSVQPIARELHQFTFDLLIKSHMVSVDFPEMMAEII
Description: Brieffy, the assay entails titration of the test compound against a preformed complex of Fluormone™AL Green and the AR-LBD (GST). […] Data analysis for the ligand binding assays was performed using Prism software (GraphPad Software, Inc.).

| activity at 10 µM (AR) [%] | IC50 (AR-LBD (GST)) [µM] | SMILES | IC50 (PC-3; Homo sapiens, PC-3, PC-3 cells) [µM] | IC50 (PC-3; PC-3 cells) [µM] | IC50 (LNCaP) [µM] | IC50 (DU145) [µM] | IC50 (WPMY-1) [µM] |
| --- | --- | --- | --- | --- | --- | --- | --- |
| 50.1 ± 1.1 | 2.15 ± 0.13 | Cc1cc(C)cc(OCCc2ccc(CN3CCN(C(c4ccccc4)c4ccccc4)CC3)cc2)c1 [Compound 7, 1-benzhydryl-4-(4-(2-(3,5-dimethylphenoxy)ethyl)benzyl)piperazine] | < 5 | 2.95 ± 0.04 | > 50 | 24.76 ± 0.21 | > 50 |
| 40.3 ± 1.2 | 3.02 ± 0.24 | c1ccc(C(c2ccccc2)N2CCN(Cc3ccc(CCOc4cccc5ccccc45)cc3)CC2)cc1 [Compound 22, 1-benzhydryl-4-(4-(2-(naphthalen-1-yloxy)ethyl)benzyl)piperazine] | 10.1 ± 0.17 | – | 6.78 ± 0.14 | 15.76 ± 0.09 | 33.16 ± 0.15 |
| 49.4 ± 0.8 | 2.74 ± 0.16 | Clc1ccc(OCCc2ccc(CN3CCN(C(c4ccccc4)c4ccccc4)CC3)cc2)cc1 [Compound 21, 1-benzhydryl-4-(4-(2-(4-chlorophenoxy)ethyl)benzyl)piperazine] | < 5 | 2.83 ± 0.21 | 16.09 ± 0.12 | 13.7 ± 0.14 | 28.65 ± 0.13 |
